Where two headings read alike, the source gives them in different places.
Assay: Hydrolysis rate of betaine ester, pH-stat titrator at constant pH and temperature
Type: physicochemical
Conditions: for profile of hydrolysis: dependence on pH
Procedure: Test realised under pH-stat configuartion, at controlled temperature (40°C). Concentration in betaine ester used 1.5.10^-2 mol/l
[formula] Test conditions: C12 BEG added to a solution (pH 10.5) of sodium stearate in distilled water. pH and temperature maintained constant all along the test. Percentage of C12 BEG hydrolysed assessed using an automatic pH stat titrator. Concentrations used: C12 BEG 1.25 10^-2 mol/l Sodium stearate: 1 equivalent 1.25 10^-2 mol/l 2 equivalents 2.5 10^-2 mol/l
[formula] • Hydrolysis rate determined with a Radiometer pH stat. • Temperature (40°C) and pH (10.5) maintained constant. Concentration in C12 BEG or new ion pair C12 BEG/DS: 10^-3 mol/l. • Mixture anionic/nonionic: sodium dodecylsulfate (0.43 g/l), sodium stearate (0.013 g/l), alkylethoxylate (Dobanol 45 7 from Shell, 0.38 g/l), N-cocoyl-N-methylglucamine (0.16 g/l). • Kinetics of hydrolysis of C12 BEG/DS, with or without surfactants all follow a first order in [C12BEG/DS].

[1] = 40°C, pH 10.5, with 1 equivalent of sodium dodecylsulfate
[2] = 40°C, pH 10.5, with 3 equivalents of sodium dodecylsulfate
[3] = 40°C, pH 10.5, with 5 equivalents of sodium dodecylsulfate
[4] = 40°C, pH 10.5, with 10 equivalents of sodium dodecylsulfate
[5] = 40°C, pH 8.5, 1.25 10^-2 mol/l, alone
[6] = 40°C, pH 8.5, with 1 equivalent sodium stearate
[7] = 40°C, pH 8.5, with 2 equivalent sodium stearate
[8] = 40°C, pH 10.5, 1.25 10^-2 mol/l, with 2 equivalents of sodium dodecylsulfate
[9] = 40°C, pH 10.5, 1.25 10^-2 mol/l, with 4 equivalents of sodium dodecylsulfate
[10] = 40°C, pH 10.5, 1.25 10^-2 mol/l, with 9 equivalents of sodium dodecylsulfate
[11] = 40°C, pH 10.5, 10^-3 mol/l, with mixture anionic/nonionic
[12] = 40°C, pH 10.5, 10^-3 mol/l, with sodium dodecylsulfate only
[13] = 40°C, pH 10.5, ion pair 1.25 10^-2 mol/l alone
[14] = 40°C, pH 10.5, ion pair 10^-3 mol/l alone

CC(C)=CCC/C(C)=C/COC(=O)C[N+](C)(C)C.[Cl-] [BEG, geranyloxycarbonyl-N,N,N-trimethylmethanaminium chloride]
k (40°C, pH 10.5, alone): 3950 mol^- ^1.l.min^-1
kobs at pH 10.5 (40°C, pH 10.5, alone): 1.25 min^-1
k [1]: 202 mol^- ^1.l.min^-1
kobs at pH 10.5 [1]: 0.064 min^-1
k [2]: 35 mol^- ^1.l.min^-1
kobs at pH 10.5 [2]: 0.0111 min^-1
k [3]: 23.5 mol^- ^1.l.min^-1
kobs at pH 10.5 [3]: 0.0074 min^-1
k [4]: 21 mol^- ^1.l.min^-1
kobs at pH 10.5 [4]: 0.0067 min^-1
half-life (buffer, pH 10.5, 40°C, pH 10.5, alone, read-out: t1/2 at pH 10.5): ~0.5 min
profile of hydrolysis: very dependent on pH
Hydrolysis profile (pH-stat, 40°C, betaine ester 1.5.10^-2 mol/l): very pH dependent
half-life (solution with 1 equivalent sodium dodecylsulfate, pH 10.5, 40°C, pH 10.5, with 1 equivalent of sodium dodecylsulfate, read-out: t1/2 at pH 10.5): 10.8 min
half-life (solution with 3 equivalents sodium dodecylsulfate, pH 10.5, 40°C, pH 10.5, with 3 equivalents of sodium dodecylsulfate, read-out: t1/2 at pH 10.5): 63 min
half-life (solution with 5 equivalents sodium dodecylsulfate, pH 10.5, 40°C, pH 10.5, with 5 equivalents of sodium dodecylsulfate, read-out: t1/2 at pH 10.5): 93 min
half-life (solution with 10 equivalents sodium dodecylsulfate, pH 10.5, 40°C, pH 10.5, with 10 equivalents of sodium dodecylsulfate, read-out: t1/2 at pH 10.5): 104 min

CCCCCCCCCCCC[N+](C)(C)CC(=O)OC/C=C(\C)CCC=C(C)C.[Br-] [C12 BEG, Geranyloxycarbonyl-N,N-dimethyl-N-dodecylmethanaminium bromide]
kobs at pH 8.5 (40°C, alone): >30 min^-1
k [5]: >100 000 mol^- ^1.l.min^-1
kobs at pH 8.5 [5]: >0.3 min^-1
k [6]: 20 333 mol^- ^1.l.min^-1
kobs at pH 8.5 [6]: 0.0643 min^-1
k [7]: 904 mol^- ^1.l.min^-1
kobs at pH 8.5 [7]: 0.00286 min^-1
k (40°C, pH 10.5, 1.25 10^-2 mol/l, alone): >100 000 mol^- ^1.l.min^-1
k (40°C, pH 10.5, 10^-3 mol/l, alone): >15000 mol^- ^1.l.min^-1
k (40°C, pH 10.5, alone): >100 000 mol^- ^1.l.min^-1
k obs (40°C, pH 10.5, high betaine ester concentration 1.25 10^-2 mol/l, alone): >30 min⁻¹
k obs (40°C, pH 10.5, lower concentration 10^-3 mol/l, alone): >5 min⁻¹
k (40°C, pH 10.5, with 1 equivalent sodium dodecylsulfate): 5.3 mol^- ^1.l.min^-1
k (40°C, pH 10.5, with 1 equivalent sodium hexadecylsulfonate): 1580 mol^- ^1.l.min^-1
k (40°C, pH 10.5, with 2 equivalents sodium stearate): 1265 mol^- ^1.l.min^-1
kobs at pH 8.5 (40°C, with 1 equivalent sodium dodecylsulfate): 0.0017 min^-1
kobs at pH 8.5 (40°C, with 1 equivalent sodium hexadecylsulfonate): 0.5 min^-1
kobs at pH 8.5 (40°C, with 2 equivalents sodium stearate): 0.4 min^-1
half-life at 0.0125 mol/l (buffer, pH 8.5, 40°C, pH 8.5, 1.25 10^-2 mol/l, alone, read-out: t1/2 pH 8.5): < 2 min
half-life at 0.0125 mol/l (buffer, pH 10.5, 40°C, pH 10.5, 1.25 10^-2 mol/l, alone, read-out: t1/2): < 0.0333 min
half-life (buffer, pH 10.5, 40°C, pH 10.5, 10^-3 mol/l, alone, read-out: t1/2): < 0.167 min
half-life (buffer, pH 10.5, 40°C, pH 10.5, alone, read-out: t1/2 pH 10.5): < 0.0333 min
rate of hydrolysis at pH neutral (∼7) (compared with a normal ester, C12 BEG 1.25 10^-2 mol/l): far faster than for a normal ester
profile of hydrolysis: very dependent on pH
half-life at 0.0125 mol/l (sodium stearate solution in distilled water (1 equivalent), pH 8.5, 40°C, pH 8.5, with 1 equivalent sodium stearate, read-out: t1/2 pH 8.5): 11 min
half-life at 0.0125 mol/l (sodium stearate solution in distilled water (2 equivalents), pH 8.5, 40°C, pH 8.5, with 2 equivalent sodium stearate, read-out: t1/2 pH 8.5): 243 min
half-life at 0.0125 mol/l (sodium stearate solution in distilled water (2 equivalents), pH 10.5, 40°C, pH 10.5, with 2 equivalents sodium stearate, read-out: t1/2 pH 10.5): 1.7 min
half-life (solution with 1 equivalent sodium dodecylsulfate, pH 10.5, 40°C, pH 10.5, with 1 equivalent sodium dodecylsulfate, read-out: t1/2 pH 10.5): 414 min
half-life (solution with 1 equivalent sodium hexadecylsulfonate, pH 10.5, 40°C, pH 10.5, with 1 equivalent sodium hexadecylsulfonate, read-out: t1/2 pH 10.5): 1.4 min

CCCCCCCCCCCCOS(=O)(=O)[O-].CCCCCCCCCCCC[N+](C)(C)CC(=O)OC/C=C(\C)CCC=C(C)C [C12 BEG/DS]
k [8]: 10.6 mol^- ^1.l.min^-1
k obs [8]: 0.0034 min⁻¹
t1/2 (40°C, pH 10.5, 1.25 10^-2 mol/l, with 2 equivalents of sodium dodecylsulfate, 12500 µM): 206 min
k [9]: 26.1 mol^- ^1.l.min^-1
k obs [9]: 0.0083 min⁻¹
t1/2 (40°C, pH 10.5, 1.25 10^-2 mol/l, with 4 equivalents of sodium dodecylsulfate, 12500 µM): 84 min
k [10]: 32.8 mol^- ^1.l.min^-1
k obs [10]: 0.0104 min⁻¹
t1/2 (40°C, pH 10.5, 1.25 10^-2 mol/l, with 9 equivalents of sodium dodecylsulfate, 12500 µM): 67 min
k [11]: 37 mol^- ^1.l.min^-1
k obs [11]: 0.01169 min⁻¹
t1/2 (40°C, pH 10.5, 10^-3 mol/l, with mixture anionic/nonionic, 1000 µM): 59 min
k [12]: 28.6 mol^- ^1.l.min^-1
k obs [12]: 0.0095 min⁻¹
t1/2 (40°C, pH 10.5, 10^-3 mol/l, with sodium dodecylsulfate only, 1000 µM): 77 min
k [13]: 229 mol^- ^1.l.min^-1
k obs [13]: 0.0724 min⁻¹
t1/2 (40°C, pH 10.5, ion pair 1.25 10^-2 mol/l alone, 12500 µM): 9.6 min
k [14]: 423.7 mol^- ^1.l.min^-1
k obs [14]: 0.134 min⁻¹
t1/2 (40°C, pH 10.5, ion pair 10^-3 mol/l alone, 1000 µM): 5.2 min

From patent EP0752465A1, “Betaine esters for delivery of alcohols” (THE PROCTER & GAMBLE COMPANY, priority 1995, dated 1997)
